This experiment deals with Src (Gallus gallus, UniProt P00523, Y527F). The experiment in a line: In vitro activity assay with Src phospho-isoforms. Type of experiment: biochemical. To be noted: npY416-Src vs pY416-Src.

Regarding `CNC(=O)c1cc(Oc2ccc(NC(=O)Nc3cc(C(C)(C)C)nn3-c3ccc4ncccc4c3)c(F)c2)ccn1` [compound 1, Rebastinib], the “Fold-difference in Ki, preference for npY416-Src over pY416-Src” value is ~ 11 fold.
